Measurements as given in US20220088016A1, “CANCER TREATMENT USING MULTI-TARGETED KINASE INHIBITOR IN COMBINATION OF PROTEIN KINASE BIOMARKERS” (ZHEJIANG CROWNMAB BIOTECH CO. LTD., priority 2019, published 2022).

Key:
Assay in all cases: Kinase profiling
Format in all cases: binding
Settings in all cases: read-out: % Ctrl @ 1000 nM
[1] = target: WEE1 (Homo sapiens, UniProt P30291)
[2] = target: EGFR (T790M) (Homo sapiens, UniProt P00533, T790M)
[3] = target: LYN (Homo sapiens, UniProt P07948)
[4] = target: T1, MAST1 (Homo sapiens, UniProt Q9Y2H9)
T1 construct: T7 phage fusion (stated for most kinases of the panel only); made in house; host or cells: T7 phage in E. coli (BL21-derived) or HEK-293 cells

[5] = target: RPS6KA4 (Kin.Dom.1-N-terminal) (Homo sapiens, UniProt O75676)
[6] = target: YANK1 (Homo sapiens, UniProt Q8WU08)
[7] = target: CDC2L2 (Homo sapiens, UniProt Q9UQ88)
[8] = target: p38-beta (Homo sapiens, UniProt Q15759)
[9] = target: PIK3CA (Homo sapiens, UniProt P42336)
[10] = target: T2, MELK (Homo sapiens, UniProt Q14680)
T2 construct: T7 phage fusion (stated for most kinases of the panel only); made in house; host or cells: T7 phage in E. coli (BL21-derived) or HEK-293 cells

[11] = target: WEE2 (Homo sapiens, UniProt P0C1S8)
[12] = target: JAK3 (JH1domain-catalytic) (Homo sapiens, UniProt P52333)
[13] = target: HIPK2 (Homo sapiens, UniProt Q9H2X6)
[14] = target: PKMYT1 (Homo sapiens, UniProt Q99640)
[15] = target: INSR (Homo sapiens, UniProt P06213)
[16] = target: T3, MERTK (Homo sapiens, UniProt Q12866)
T3 construct: T7 phage fusion (stated for most kinases of the panel only); made in house; host or cells: T7 phage in E. coli (BL21-derived) or HEK-293 cells

[17] = target: ALK (L1196M) (Homo sapiens, UniProt Q9UM73, L1196M)
[18] = target: PRKD3 (Homo sapiens, UniProt O94806)
[19] = target: RSK3 (Kin.Dom.1-N-terminal) (Homo sapiens, UniProt Q15349)
[20] = target: CDK4 (Homo sapiens, UniProt P11802)
[21] = target: T4, MEK2 (Homo sapiens, UniProt P36507)
T4 construct: T7 phage fusion (stated for most kinases of the panel only); made in house; host or cells: T7 phage in E. coli (BL21-derived) or HEK-293 cells

[22] = target: T5, NLK (Homo sapiens, UniProt Q9UBE8)
T5 construct: T7 phage fusion (said for most assays); made in house

[23] = target: PRKCH (Homo sapiens, UniProt P24723)
[24] = target: EGFR (L858R, T790M) (Homo sapiens, UniProt P00533, L858R/T790M)
[25] = target: DAPK1 (Homo sapiens, UniProt P53355)
[26] = target: CDKL1 (Homo sapiens, UniProt Q00532)
[27] = target: GCN2 (Kin.Dom.2, S808G) (Homo sapiens, UniProt Q9P2K8, S808G)
[28] = target: RPS6KA5 (Kin.Dom.2-C-terminal) (Homo sapiens, UniProt O75582)
[29] = target: YSK4 (Homo sapiens, UniProt Q56UN5)
[30] = target: RIPK1 (Homo sapiens, UniProt Q13546)
[31] = target: FES (Homo sapiens, UniProt P07332)
[32] = target: CDKL2 (Homo sapiens, UniProt Q92772)
[33] = target: RIPK2 (Homo sapiens, UniProt O43353)
[34] = target: T6, MYO3B (Homo sapiens, UniProt Q8WXR4)
T6 construct: T7 phage fusion (said for most assays); made in house

[35] = target: CDK4-cyclinD1 (Homo sapiens, UniProt P11802)
[36] = target: CSNK1E (Homo sapiens, UniProt P49674)
[37] = target: DYRK2 (Homo sapiens, UniProt Q92630)
[38] = target: GSK3B (Homo sapiens, UniProt P49841)
[39] = target: SRPK3 (Homo sapiens, UniProt Q9UPE1)

Chain of CDC2L2 (Q9UQ88 whole entry): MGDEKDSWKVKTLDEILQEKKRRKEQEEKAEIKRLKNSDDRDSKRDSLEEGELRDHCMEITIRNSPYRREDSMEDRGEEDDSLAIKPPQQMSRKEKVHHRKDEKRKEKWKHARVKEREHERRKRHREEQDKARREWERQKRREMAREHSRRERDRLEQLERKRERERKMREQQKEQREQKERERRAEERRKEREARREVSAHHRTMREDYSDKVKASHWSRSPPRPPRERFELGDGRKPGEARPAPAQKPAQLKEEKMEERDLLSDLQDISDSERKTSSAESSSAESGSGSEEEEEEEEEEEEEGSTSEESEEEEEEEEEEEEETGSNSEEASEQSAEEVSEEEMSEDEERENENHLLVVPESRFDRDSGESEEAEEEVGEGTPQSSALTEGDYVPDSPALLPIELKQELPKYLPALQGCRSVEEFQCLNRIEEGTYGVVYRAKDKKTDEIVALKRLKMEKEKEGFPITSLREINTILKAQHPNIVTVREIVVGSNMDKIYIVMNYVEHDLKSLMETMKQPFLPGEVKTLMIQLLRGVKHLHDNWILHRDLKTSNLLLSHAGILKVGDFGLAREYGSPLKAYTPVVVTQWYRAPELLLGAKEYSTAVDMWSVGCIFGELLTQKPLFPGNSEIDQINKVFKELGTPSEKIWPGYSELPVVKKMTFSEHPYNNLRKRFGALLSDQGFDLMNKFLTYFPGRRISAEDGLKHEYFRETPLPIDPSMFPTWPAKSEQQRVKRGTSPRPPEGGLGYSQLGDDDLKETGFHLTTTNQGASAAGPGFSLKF
Chain of GCN2 (Kin.Dom.2, S808G) (Q9P2K8 590-1001 S808G limits assumed): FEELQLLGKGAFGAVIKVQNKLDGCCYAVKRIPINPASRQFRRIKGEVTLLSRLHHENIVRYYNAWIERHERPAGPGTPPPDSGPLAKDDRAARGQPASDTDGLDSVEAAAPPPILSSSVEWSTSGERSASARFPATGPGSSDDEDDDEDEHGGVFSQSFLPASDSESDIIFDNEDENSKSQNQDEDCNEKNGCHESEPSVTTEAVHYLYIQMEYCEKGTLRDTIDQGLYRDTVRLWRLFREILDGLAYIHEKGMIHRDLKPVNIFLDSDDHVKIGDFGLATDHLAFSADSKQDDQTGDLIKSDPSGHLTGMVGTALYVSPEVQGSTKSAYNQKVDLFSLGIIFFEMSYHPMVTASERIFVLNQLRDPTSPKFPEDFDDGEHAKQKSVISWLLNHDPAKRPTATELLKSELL
Chain of GSK3B (P49841 whole entry): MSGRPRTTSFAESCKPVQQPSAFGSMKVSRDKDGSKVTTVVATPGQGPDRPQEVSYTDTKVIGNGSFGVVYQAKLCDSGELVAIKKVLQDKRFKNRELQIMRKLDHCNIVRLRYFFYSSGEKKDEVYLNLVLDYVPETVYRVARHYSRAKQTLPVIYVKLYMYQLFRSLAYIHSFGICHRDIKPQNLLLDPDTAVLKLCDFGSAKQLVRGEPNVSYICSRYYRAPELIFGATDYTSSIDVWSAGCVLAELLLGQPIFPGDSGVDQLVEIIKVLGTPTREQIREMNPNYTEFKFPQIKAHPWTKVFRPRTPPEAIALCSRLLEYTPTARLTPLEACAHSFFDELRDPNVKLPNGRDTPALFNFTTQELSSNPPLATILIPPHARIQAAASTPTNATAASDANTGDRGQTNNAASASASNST
T3 sequence (Q12866 21-999): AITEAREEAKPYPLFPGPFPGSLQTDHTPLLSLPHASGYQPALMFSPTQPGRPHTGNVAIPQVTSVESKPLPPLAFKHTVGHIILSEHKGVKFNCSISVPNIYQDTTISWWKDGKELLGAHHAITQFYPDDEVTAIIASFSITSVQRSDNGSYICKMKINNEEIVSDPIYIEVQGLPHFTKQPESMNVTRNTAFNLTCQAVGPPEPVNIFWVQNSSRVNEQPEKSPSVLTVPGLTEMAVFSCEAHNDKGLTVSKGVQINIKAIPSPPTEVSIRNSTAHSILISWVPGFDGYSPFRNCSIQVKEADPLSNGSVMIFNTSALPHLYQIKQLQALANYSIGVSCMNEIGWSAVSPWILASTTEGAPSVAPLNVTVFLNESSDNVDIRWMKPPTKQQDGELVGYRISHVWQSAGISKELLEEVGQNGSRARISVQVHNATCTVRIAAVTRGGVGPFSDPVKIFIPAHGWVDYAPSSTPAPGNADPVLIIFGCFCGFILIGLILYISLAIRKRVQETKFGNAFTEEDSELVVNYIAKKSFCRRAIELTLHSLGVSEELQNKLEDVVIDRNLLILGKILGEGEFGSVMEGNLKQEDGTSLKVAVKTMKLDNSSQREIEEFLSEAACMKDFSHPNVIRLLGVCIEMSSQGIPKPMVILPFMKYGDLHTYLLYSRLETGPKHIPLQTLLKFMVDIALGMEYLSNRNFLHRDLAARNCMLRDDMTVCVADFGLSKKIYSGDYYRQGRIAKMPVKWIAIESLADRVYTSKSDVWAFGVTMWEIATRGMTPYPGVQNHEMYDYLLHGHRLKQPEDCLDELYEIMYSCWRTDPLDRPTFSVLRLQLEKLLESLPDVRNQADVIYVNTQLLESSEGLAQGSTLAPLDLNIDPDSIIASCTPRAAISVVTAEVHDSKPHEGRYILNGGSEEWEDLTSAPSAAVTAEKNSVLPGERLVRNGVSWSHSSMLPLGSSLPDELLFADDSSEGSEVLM
Chain of PRKCH (P24723 whole entry): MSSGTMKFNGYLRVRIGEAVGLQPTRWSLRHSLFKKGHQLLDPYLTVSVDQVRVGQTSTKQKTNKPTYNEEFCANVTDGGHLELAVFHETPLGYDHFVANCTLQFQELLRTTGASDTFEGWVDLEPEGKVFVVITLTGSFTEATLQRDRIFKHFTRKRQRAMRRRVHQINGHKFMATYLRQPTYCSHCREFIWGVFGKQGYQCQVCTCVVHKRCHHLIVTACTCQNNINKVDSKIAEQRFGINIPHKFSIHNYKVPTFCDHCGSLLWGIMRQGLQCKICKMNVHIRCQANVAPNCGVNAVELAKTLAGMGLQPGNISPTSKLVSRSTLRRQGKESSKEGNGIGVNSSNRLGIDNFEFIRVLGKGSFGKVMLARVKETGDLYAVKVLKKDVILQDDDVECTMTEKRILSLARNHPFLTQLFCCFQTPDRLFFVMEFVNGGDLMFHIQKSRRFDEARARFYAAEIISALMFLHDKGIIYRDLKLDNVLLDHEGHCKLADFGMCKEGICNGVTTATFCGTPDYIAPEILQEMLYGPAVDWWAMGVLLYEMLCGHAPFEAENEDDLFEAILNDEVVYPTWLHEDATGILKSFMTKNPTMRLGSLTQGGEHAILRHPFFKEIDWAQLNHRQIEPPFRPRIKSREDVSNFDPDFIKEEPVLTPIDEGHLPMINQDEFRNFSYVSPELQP
Chain of DYRK2 (Q92630 whole entry): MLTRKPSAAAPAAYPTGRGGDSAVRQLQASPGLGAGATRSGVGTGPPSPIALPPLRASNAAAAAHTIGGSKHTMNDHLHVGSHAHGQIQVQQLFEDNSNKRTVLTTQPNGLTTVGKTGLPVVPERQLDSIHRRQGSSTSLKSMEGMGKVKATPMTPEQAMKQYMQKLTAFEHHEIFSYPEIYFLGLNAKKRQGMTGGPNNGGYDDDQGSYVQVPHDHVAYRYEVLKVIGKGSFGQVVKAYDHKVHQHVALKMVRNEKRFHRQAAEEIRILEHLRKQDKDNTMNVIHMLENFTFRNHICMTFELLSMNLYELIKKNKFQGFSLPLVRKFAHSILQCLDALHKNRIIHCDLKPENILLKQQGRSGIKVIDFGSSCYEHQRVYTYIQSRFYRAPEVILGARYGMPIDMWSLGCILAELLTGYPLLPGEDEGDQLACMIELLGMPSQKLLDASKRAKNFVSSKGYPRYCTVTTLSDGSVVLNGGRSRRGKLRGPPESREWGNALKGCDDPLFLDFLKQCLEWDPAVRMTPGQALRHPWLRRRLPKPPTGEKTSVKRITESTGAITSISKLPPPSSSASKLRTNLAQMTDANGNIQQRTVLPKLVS
Chain of LYN (P07948 whole entry): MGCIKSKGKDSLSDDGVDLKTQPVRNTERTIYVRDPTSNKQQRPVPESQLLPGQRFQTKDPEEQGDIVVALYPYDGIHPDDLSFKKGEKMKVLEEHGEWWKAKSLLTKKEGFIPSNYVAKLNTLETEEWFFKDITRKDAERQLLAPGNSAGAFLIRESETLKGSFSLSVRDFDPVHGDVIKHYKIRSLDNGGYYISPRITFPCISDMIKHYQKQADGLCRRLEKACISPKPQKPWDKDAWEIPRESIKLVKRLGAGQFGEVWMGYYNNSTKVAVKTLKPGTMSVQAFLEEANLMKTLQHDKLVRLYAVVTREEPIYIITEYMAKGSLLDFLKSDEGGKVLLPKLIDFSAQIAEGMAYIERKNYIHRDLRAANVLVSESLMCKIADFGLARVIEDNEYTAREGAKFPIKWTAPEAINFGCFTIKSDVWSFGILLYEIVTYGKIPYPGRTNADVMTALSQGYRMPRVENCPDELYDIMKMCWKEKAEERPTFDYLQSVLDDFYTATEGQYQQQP
T2 sequence (Q14680 whole entry, the tested form may be a part): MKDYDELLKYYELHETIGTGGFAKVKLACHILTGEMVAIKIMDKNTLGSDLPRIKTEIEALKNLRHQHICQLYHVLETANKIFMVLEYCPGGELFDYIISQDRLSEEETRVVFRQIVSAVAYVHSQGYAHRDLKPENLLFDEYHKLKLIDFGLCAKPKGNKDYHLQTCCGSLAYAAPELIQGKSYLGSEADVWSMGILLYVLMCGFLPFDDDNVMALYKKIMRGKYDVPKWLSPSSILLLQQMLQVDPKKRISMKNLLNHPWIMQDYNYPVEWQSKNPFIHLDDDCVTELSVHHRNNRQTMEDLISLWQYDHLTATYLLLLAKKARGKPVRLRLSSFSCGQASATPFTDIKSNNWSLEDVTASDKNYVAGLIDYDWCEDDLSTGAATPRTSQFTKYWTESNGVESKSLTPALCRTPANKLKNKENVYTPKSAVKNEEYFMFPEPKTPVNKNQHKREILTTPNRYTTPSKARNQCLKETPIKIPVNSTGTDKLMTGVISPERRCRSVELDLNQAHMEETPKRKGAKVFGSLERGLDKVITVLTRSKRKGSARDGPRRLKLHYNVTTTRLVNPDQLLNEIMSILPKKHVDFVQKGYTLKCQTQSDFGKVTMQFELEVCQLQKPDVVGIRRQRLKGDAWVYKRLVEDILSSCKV

In the case of `Cc1cc(Oc2cc(NC(=O)C3CC3)ncn2)ccc1NC(=O)Nc1ccc(Cl)c(C(F)(F)F)c1` [CBT-102], the remaining activity at 1 µM [1] is reported as 92%, the remaining activity at 1 µM [2] is reported as 94% and the remaining activity at 1 µM [3] is reported as 20%. It also gave a remaining activity at 1 µM [4] of 86%, a remaining activity at 1 µM [5] of 100% and a remaining activity at 1 µM [6] of 98%. For the same compound, the remaining activity at 1 µM [7] was 22%, the remaining activity at 1 µM [8] was 0% and the remaining activity at 1 µM [9] was 100%. The remaining activity at 1 µM [10] was 84%, the remaining activity at 1 µM [11] was 97% and the remaining activity at 1 µM [12] was 82%. It also gave a remaining activity at 1 µM [13] of 90%, a remaining activity at 1 µM [14] of 97% and a remaining activity at 1 µM [15] of 100%. It also gave a remaining activity at 1 µM [16] of 23%, a remaining activity at 1 µM [17] of 94% and a remaining activity at 1 µM [18] of 91%. The remaining activity at 1 µM [19] was 98%, the remaining activity at 1 µM [20] was 100% and the remaining activity at 1 µM [21] was 76%. For the same compound, the remaining activity at 1 µM [22] was 16%, the remaining activity at 1 µM [23] was 100% and the remaining activity at 1 µM [24] was 86%. It also gave a remaining activity at 1 µM [25] of 98%, a remaining activity at 1 µM [26] of 65% and a remaining activity at 1 µM [27] of 100%. It also gave a remaining activity at 1 µM [28] of 100%, a remaining activity at 1 µM [29] of 9.6% and a remaining activity at 1 µM [30] of 95%. It also gave a remaining activity at 1 µM [31] of 68%, a remaining activity at 1 µM [32] of 0.45% and a remaining activity at 1 µM [33] of 28%. The remaining activity at 1 µM [34] was 90%, the remaining activity at 1 µM [35] was 99% and the remaining activity at 1 µM [36] was 100%. The remaining activity at 1 µM [37] was 89%, the remaining activity at 1 µM [38] was 42% and the remaining activity at 1 µM [39] was 100%.
